# Like-named read-outs stand apart in the source and are kept apart here.
# How the values were obtained:
# [1] = system: CD1 mice administered 1% ethylene glycol; assay: Mouse ethylene glycol model of hyperoxaluria, urinary oxalate; assay type: in vivo; settings: mice, once-daily oral gavage, 100 mg/kg
# Description: Mouse Models of Hyperoxaluria for Determining In Vivo Efficacy of hGOX Inhibitors
# Male CD1 mice, 6-8 weeks of age (Charles River Labs, Wilmington, Mass.) were administered 1% ethylene glycol ad libitum their drinking water for 14 days. The mice were housed in individual cages, fed ad libitum and 24-h urine collections were initiated on days 1, 5, 9 and 14 using a 15-rack metabolic cage system equipped with a CCS2000 chiller system (Hatteras Instruments, Cary, N.C.) to maintain the samples at 4° C. during collection. Hydrochloric acid (100 μL of 6N) added to the collection vials to acidify the samples and prevent degradation of oxalate before evaluation.
# Urine samples were maintained at 4° C. and urinary oxalate concentrations were determined within 24 hours of sample collection using a Trinity Biotech oxalate assay kit (Catalog #591-D). The assay was an enzymatic method based on the oxidation of oxalate by oxalate oxidase followed by measurement of hydrogen peroxide (H2O2) produced during the peroxidase-catalyzed reaction. Briefly, a 1-mL aliquot of each sample was diluted with an equal volume of assay diluent to bring the pH to between 5.0 and 7.0, then placed into purifier tubes (provided in the kit) and mixed for 5 min. The tubes were centrifuged for 5 min at 2000 rpm (1500×g) and the supernatants collected for the oxalate assay. The procedure was specific for oxalate with no special equipment and was easily adaptable for clinical automated analyzers. Each assay included a standard curve prepared with a standardized oxalate control sample (included in the kit) and internal assay control samples for both a normal (0.2-0.3 mmol/L) and elevated (0.86-1.21 mmol/L) level of oxalate.
# To evaluate in vivo efficacy, mice were dosed by once-daily oral gavage of compound I-002 in an appropriate vehicle (e.g., phosphate-buffered saline, pH 7.4) at a dosage of 100 mg/kg. […]
# The effect of example I-001 in the ethylene glycol model using CD-1 mice was evaluated by twice-daily, oral gavage dosing at 50 mg/kg for 6 days (days 5-11). […]
# [2] = target: recombinant full-length human hydroxyacid oxidase 1 (HAO1), the equivalent of hGOX (Homo sapiens (Human), UniProt Q9UJM8); assay: In-vitro human glycolate oxidase (hGOX) assay (Amplex red/HRP fluorescence); assay type: biochemical
# recombinant full-length human hydroxyacid oxidase 1 (HAO1), the equivalent of hGOX, sequence (Q9UJM8 whole entry): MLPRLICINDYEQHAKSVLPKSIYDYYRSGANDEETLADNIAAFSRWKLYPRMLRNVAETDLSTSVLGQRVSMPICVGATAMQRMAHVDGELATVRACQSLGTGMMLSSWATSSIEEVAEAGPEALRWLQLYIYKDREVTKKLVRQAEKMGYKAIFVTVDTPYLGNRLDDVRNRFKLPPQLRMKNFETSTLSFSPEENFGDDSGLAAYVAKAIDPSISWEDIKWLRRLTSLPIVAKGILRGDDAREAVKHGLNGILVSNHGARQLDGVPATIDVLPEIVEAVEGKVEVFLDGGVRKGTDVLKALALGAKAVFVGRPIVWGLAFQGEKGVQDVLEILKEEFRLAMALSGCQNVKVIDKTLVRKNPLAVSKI
# Description: Biological Activity Assay: In-Vitro Human Glycolate Oxidase (hGOX) Assay
# The in-vitro glycolate oxidase assay was performed using recombinant full-length human hydroxyacid oxidase 1 (HAO1), the equivalent of hGOX. […] Purified HAO1 was dissolved in assay buffer consisting of 10 mM NaCl, 110 mM KCl, 2 mM MgCl2, 50 mM HEPES (pH 7.4) and 0.01% Triton™ X-100.
# [3] = Solubility in aqueous solution (deionized, distilled water); assay type: physicochemical; settings: 1% DMSO, read-out: Aqueous Solubility H2O
# In short: (§1)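 DMSO stock (10 mM) diluted into 100 mM phosphate buffer pH 7.4, or into deionized distilled water for the aqueous assay, at 1% final DMSO and shaken 1 h at room temperature. After centrifugation, supernatants quantified by LC-MS/MS against a calibration curve with internal standard.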
# [4] = Stability in human plasma; assay type: in vitro ADME; settings: for half-life at 2 μM: read-out: Plasma Stability T1/2
# In short: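 Pooled human plasma (pH 7.4-8) at 37° C, test compound spiked from a 0.02 mM solution in phosphate buffer with 0.5% BSA. Samples taken at 0, 5, 15, 30, 45 and 60 min, quenched with acetonitrile containing internal standard, and remaining compound measured by LC/MS.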
# [5] = Solubility in phosphate buffered saline (PBS), pH 7.4; assay type: physicochemical; settings: phosphate buffered saline pH 7.4, 1% DMSO, 1 hour shaking at room temperature
# In short: as §1
# [6] = Metabolic stability in human liver microsomal preparation; assay type: in vitro ADME; settings: human liver microsomes, NADPH, 37° C.; for CLint scaled at 1 μM / half-life at 1 μM: pH 7.4; for half-life at 1 μM: read-out: Metabolic Stability t1/2
# In short: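 Compound at 1.5 μM with 0.75 mg/mL human liver microsomes (concentrations before NADPH addition) in 0.1 M potassium phosphate, 1 mM EDTA, pH 7.4 was preincubated 5 min at 37 °C, then started with NADPH. Samples at 0, 5, 15, 30 and 45 min were quenched with acetonitrile/internal standard and analysed by LC/MS.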
# [7] = Protein binding (plasma equilibrium dialysis); assay type: in vitro ADME; settings: 5 hours at 37° C.
# In short: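 Compound spiked into plasma at 1 μM final (0.2% DMSO) and dialysed against phosphate buffer for 5 hours at 37 °C with shaking. Donor and receiver samples, matrix-matched and acetonitrile-quenched with internal standard, quantified by LC/MS/MS alongside 0-hour plasma samples.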
# [8] = target: glycolate oxidase (GOX) in HepaRG-CAR cells (Homo sapiens (Human), UniProt Q9UJM8); assay: HepaRG-CAR cell-based assay for quantitation of glycolate oxidase inhibition (cellular glycolate flux, GC-MS); settings: HepaRG-CAR cells, 500 μM glycolate, 48 hours incubation; read-out: IC50
# glycolate oxidase (GOX) in HepaRG-CAR cells, sequence (Q9UJM8 whole entry): as above
# [9] = phosphate buffer (PBS), aqueous buffer, kinetic from dmso stock
SMILES,IC50 [2],solubility at 1 h ([3]; kinetic from dmso stock),half-life at 2 μM [4],"solubility at 1 h [5, 9]",CLint scaled at 1 μM [6],half-life at 1 μM ([6]; 0-45 min),"recovery at 5 h, 1 μM [7]",IC50 [8],"fraction unbound at 5 h, 1 μM ([7]; read-out: Protein Binding Fraction Bound (converted))",reduction in urinary oxalate [1],"IC50 ([2]; 12.5 nM HAO1, 85 μM glycolate, 2.5% DMSO, read-out: IC50)",solubility at 1 h [3],Plasma Stability T1/2 [4],solubility at 1 h ([5]; read-out: Aqueous Solubility PBS),Metabolic Stability Clint [6],Metabolic Stability t1/2 ([6]; 0-45 min),Protein Binding Recovery ([7]; 1 μM)
"CCOC(=O)c1nn[nH]c1Sc1ccc(Cl)cc1 [Example I-002, Ethyl 5-((4-chlorophenyl)thio)-1H-1,2,3-triazole-4-carboxylate]",–,–,–,–,–,–,–,–,–,statistically significant reduction,–,–,–,–,–,–,–
"O=C(O)c1nn[nH]c1Oc1cccc(-c2ccccc2)c1 [Example I-249, 5-([1,1′-Biphenyl]-3-yloxy)-1H-1,2,3-triazole-4-carboxylic acid]",19 nM,108 µM,3.71 h,103 µM,5 mL/min/kg,5.79 h,99.2%,2000 nM,–,–,–,–,–,–,–,–,–
"O=C(O)c1nn[nH]c1Oc1ccc(-c2ccccn2)cc1 [Example I-261, 5-(4-(Pyridin-2-yl)phenoxy)-1H-1,2,3-triazole-4-carboxylic acid]",–,–,–,–,–,–,–,> 10000 nM,–,–,150 nM,105 µM,1.328 h,101.5 µM,1.58 mL/min/kg,18.301 h,111.0%
"O=C(O)c1[nH]nnc1Oc1ccc(-c2ccc(Cl)c(Cl)c2)cc1 [Example I-171, 5-((3′,4′-Dichloro-[1,1′-biphenyl]-4-yl)oxy)-1H-1,2,3-triazole-4-carboxylic acid]",10 nM,45.8 µM,1.93 h,96.3 µM,14.4 mL/min/kg,2.01 h,87.5%,> 10000 nM,–,–,–,–,–,–,–,–,–
"O=C(O)c1nn[nH]c1Oc1cccc(-c2ccc(Cl)cc2)c1 [Example I-252, 5-((4′-Chloro-[1,1′-biphenyl]-3-yl)oxy)-1H-1,2,3-triazole-4-carboxylic acid]",13 nM,98 µM,5.02 h,104 µM,7.66 mL/min/kg,3.78 h,97.1%,2000 nM,–,–,–,–,–,–,–,–,–
"O=C(O)c1nn[nH]c1Oc1ccc(-c2ccccc2)nc1 [Example I-263, 5-((6-Phenylpyridin-3-yl)oxy)-1H-1,2,3-triazole-4-carboxylic acid]",141 nM,99 µM,1.51 h,106 µM,2.48 mL/min/kg,11.7 h,111%,> 10000 nM,0.014,–,–,–,–,–,–,–,–

# The remaining compounds from weak to strong by IC50 [2], led by results:
IC50 [2],solubility at 1 h ([3]; kinetic from dmso stock),half-life at 2 μM [4],"solubility at 1 h [5, 9]",CLint scaled at 1 μM [6],half-life at 1 μM ([6]; 0-45 min),"recovery at 5 h, 1 μM [7]",IC50 [8],"fraction unbound at 5 h, 1 μM ([7]; read-out: Protein Binding Fraction Bound (converted))",SMILES,reduction in urinary oxalate [1],"IC50 ([2]; 12.5 nM HAO1, 85 μM glycolate, 2.5% DMSO, read-out: IC50)",solubility at 1 h [3],Plasma Stability T1/2 [4],solubility at 1 h ([5]; read-out: Aqueous Solubility PBS),Metabolic Stability Clint [6],Metabolic Stability t1/2 ([6]; 0-45 min),Protein Binding Recovery ([7]; 1 μM)
6 nM,81 µM,3.35 h,97.1 µM,< 0.15 mL/min/kg,> 83.3 h,102%,5000 nM,–,"O=C(O)c1nn[nH]c1Oc1cccc(-c2ccc(Cl)c(Cl)c2)c1 [Example I-255, 5-((3′,4′-Dichloro-[1,1′-biphenyl]-3-yl)oxy)-1H-1,2,3-triazole-4-carboxylic acid]",–,–,–,–,–,–,–,–
5 nM,29.1 µM,1.85 h,93.7 µM,< 0.15 mL/min/kg,> 83.3 h,98.5%,> 10000 nM,–,"O=C(O)c1nn[nH]c1Oc1ccc(-c2ccc(Br)cc2)cc1 [Example I-154, 5-((4′-Bromo-[1,1′-biphenyl]-4-yl)oxy)-1H-1,2,3-triazole-4-carboxylic acid]",–,–,–,–,–,–,–,–

# — patent US11389456B2, “Compounds and methods for treating oxalate-related diseases” (OxaluRx, Inc., priority 2018, dated 2022)
